We go through one compound from patent US20220072075A1, “METHOD FOR PRODUCING NATURAL ANTIMICROBIAL SUBSTANCE AND ANTIMICROBIAL COMPOSITION COMPRISING NATURAL ANTIMICROBIAL SUBSTANCE PRODUCED BY THE SAME” (MY CO.,LTD, priority 2020, published 2022).

The assay deals with Staphylococcus aureus. In words: Antimicrobial Efficacy Test 4: elimination of Staphylococcus aureus, identification using a mass spectrometer. Type of assay: cell-based. The note with it: substance added as named (70% ethanol, Febreze). As for the experimental part:
In the present disclosure, “natural antimicrobial substance (n %)” means that the natural antimicrobial substance of the present disclosure is dissolved in multi-photocatalyst water or hypochlorous acid water (pH 5) at a concentration of n %. FIGS. 4 to 9 show the data obtained by identifying Staphylococcus aureus and Staphylococcus aureus plus specific substance using a mass spectrometer.

As for `CCO` [70% ethanol, ethanol], the “elimination of Staphylococcus aureus (mass spectrum / bacterial identification)” value is “not eliminated”.
